Test results published in ChEMBL document CHEMBL1141690, “New PPARgamma ligands based on barbituric acid: virtual screening, synthesis and receptor binding studies” (Bioorg Med Chem Lett, 2008).

Key:
[1] = target: T1, Peroxisome proliferator-activated receptor gamma (Mus musculus, UniProt P37238); assay: Displacement of [3H]rosiglitazone from mouse PPARgamma receptor by scintillation proximation assay
T1 sequence (P37238 whole entry): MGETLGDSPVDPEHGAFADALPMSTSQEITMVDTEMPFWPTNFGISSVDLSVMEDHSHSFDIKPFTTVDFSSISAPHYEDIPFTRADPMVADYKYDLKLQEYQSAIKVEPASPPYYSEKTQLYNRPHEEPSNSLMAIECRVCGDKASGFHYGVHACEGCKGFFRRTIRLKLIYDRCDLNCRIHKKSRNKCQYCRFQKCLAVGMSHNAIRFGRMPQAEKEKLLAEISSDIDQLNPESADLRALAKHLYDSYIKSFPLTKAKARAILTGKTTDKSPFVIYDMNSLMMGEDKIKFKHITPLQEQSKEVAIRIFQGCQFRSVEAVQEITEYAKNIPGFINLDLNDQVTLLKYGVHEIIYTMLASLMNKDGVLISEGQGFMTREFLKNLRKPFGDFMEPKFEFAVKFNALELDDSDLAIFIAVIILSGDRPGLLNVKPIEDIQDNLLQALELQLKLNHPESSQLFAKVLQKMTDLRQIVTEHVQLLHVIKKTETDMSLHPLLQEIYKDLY

[2] = target: T2, Peroxisome proliferator-activated receptor gamma (Mus musculus) (UniProt P37238); assay: Displacement of [3H]rosiglitazone from mouse PPARgamma receptor at 10 uM by scintillation proximation assay
T2 sequence (whole entry): T1 sequence (P37238 whole entry)

SMILES	IC50 [1]	inhibition [2]
COc1ccc(OCCOc2ccc(C=C3C(=O)NC(=O)NC3=O)cc2)cc1	200 nM	
Cc1ccc(OCCOc2ccc(C=C3C(=O)NC(=O)NC3=O)cc2)cc1		< 20%
O=C1NC(=O)C(=Cc2ccc(OCCn3ccc4cccnc43)cc2)C(=O)N1		< 20%
O=C1NC(=O)C(=Cc2ccc(OCCOc3ccc4ccccc4c3)cc2)C(=O)N1		< 20%
N#Cc1ccc(OCCOc2ccc(C=C3C(=O)NC(=O)NC3=O)cc2)cc1	200 nM	
O=C1NC(=O)C(=Cc2ccc(OCCOc3ccccn3)cc2)C(=O)N1		< 20%
O=C1NC(=O)C(=Cc2ccc(OCCOc3ccc([N+](=O)[O-])cc3)cc2)C(=O)N1	2500 nM	
N#Cc1ccc(OCCCOc2ccc(C=C3C(=O)NC(=O)NC3=O)cc2)cc1		< 20%
Cc1ccc(OCCOc2cccc(C=C3C(=O)NC(=O)NC3=O)c2)cc1	800 nM	
O=C1NC(=O)C(=Cc2ccc(Oc3ccccc3)cc2)C(=O)N1	100 nM	
O=C1NC(=O)C(=Cc2ccc(OCCn3c4ccccc4c4ccccc43)cc2)C(=O)N1		< 20%
O=C1NC(=O)C(=Cc2ccc(OCCOc3ccc(Br)cc3)cc2)C(=O)N1		< 20%
CC(C)c1ccc(OCCCOc2ccc(C=C3C(=O)NC(=O)NC3=O)cc2)cc1		< 20%
O=C1NC(=O)C(=Cc2ccc(OCCN3c4ccccc4Oc4ccccc43)cc2)C(=O)N1	500 nM	
